Laboratory results: patent US9115148B2, “Spirocyclic derivatives as histone deacetylase inhibitors” (DAC S.R.L., priority 2008, dated 2015)

Columns and labels:
[1] = system: HDAC (nuclear fraction of Hela cells); assay: Assay of enzyme inhibition of HDAC (BIOMOL Kit); type: biochemical; settings: substrate 200 μM, 15 min at RT
Protocol: 2.2 Assay of Enzyme Inhibition of HDAC
The in-vitro activity of HDAC inhibitors was assayed using a BIOMOL Kit, according to the instructions from the manufacturer (Biomolecular Research Laborator). 15 μl of 30× diluted nuclear fraction of Hela cells, was diluted to 50 μl with the assay buffer containing the HDAC inhibitor and the substrate (lysine with acetylated amino group on the side chain) at a concentration of 200 μM. The samples were incubated for 15 min at RT and then exposed to a developer (10 min at RT). In this last step a fluorophore was produced, whose fluorescence was measured using an excitation wavelength of 355 nm and an emission at 460 nm. The IC50 was calculated using GraphPad Software.

K562 cells = assay: Cell growth, CellTiter-Glo Luminescent Cell Viability Assay, K562; type: cell-based; settings: Homo sapiens, 72 h incubation, read-out: IC50 antiproliferative assay K562
Source text: (§1) CellTiter-Glo® Luminescent Cell Viability Assay (Promega) is a homogeneous method of determining the number of viable cells in culture based on quantitation of the present ATP, which indicates the presence of metabolically active cells. The homogeneous assay procedure involves addition of a single reagent (CellTiter-Glo® Reagent) directly to the cells, which leads to cell lysis and generation of a luminescent signal proportional to the amount of the ATP and the number of cells present in culture. The assay relies on the properties of a proprietary thermostable luciferase (Ultra-Glo® recombinant luciferase), which generates a luminescent signal.
(§2) K562, A549 and HCT-116 cells, in exponential growth, were incubated for 72 h with different concentrations of the inhibitors. After 72 h, a volume of CellTiter-Glo® Reagent equal to the volume of cell culture medium was added. The content was mixed for 2 min to induce cell lysis. The luminescence was recorded after further 10 min at RT in order to obtain a stabilized luminescent signal.
(§3) The IC50 was calculated using GraphPad Software.
(§4) IC50 results were allocated to one of 3 ranges as follows: Range A: IC50≦1.0 μM; Range B: from 1.0 to 3.0 μM; Range C: IC50≧3.0 μM.

A549 cells = assay: Cell growth, CellTiter-Glo Luminescent Cell Viability Assay, A549; type: cell-based; settings: Homo sapiens, 72 h incubation, read-out: IC50 antiproliferative assay A549
Source text: as §1, §2, §3, §4

HCT-116 cells = assay: Cell growth, CellTiter-Glo Luminescent Cell Viability Assay, HCT-116; type: cell-based; settings: Homo sapiens, HCT116 cells, 72 h incubation, read-out: IC50 antiproliferative assay HCT116
Source text: as §1, §2, §3, §4

Compound | IC50 [1] | IC50 (K562 cells) | IC50 (A549 cells) | IC50 (HCT-116 cells)
O=C(/C=C/c1ccc2c(c1)CCC1(CCN(Cc3ccccc3)CC1)O2)NO [Example 13, (E)-3-{1′-Benzyl-spiro[chromane-2,4′-piperidine]-6-yl}-N-hydroxy-acrylamide] | > 1 µM | ≥ 3 µM | ≥ 3 µM | ≥ 3 µM
O=C(/C=C/c1ccc2c(c1)C(=O)CC1(CCN(Cc3ccncc3)CC1)O2)NO [Example 42, (E)-3-{1′-(Pyridin-4-ylmethyl)-4-oxo-spiro[chromane-2,4′-piperidine]-6-yl}-N-hydroxy-acrylamide] | 0.1 to 1 µM | 1 to 3 µM | 1 to 3 µM | ≤ 1 µM
O=C(/C=C/c1ccc2c(c1)C(=O)CC1(CCN(Cc3ccc(-c4ccccc4)cc3)CC1)O2)NO [Example 52, (E)-3-{1′-(Biphenyl-4-ylmethyl)-4-oxo-spiro[chromane-2,4′-piperidine]-6-yl}-N-hydroxy-acrylamide] | 0.1 to 1 µM | ≤ 1 µM | 1 to 3 µM | ≤ 1 µM
O=C(/C=C/c1ccc2c(c1)C(=O)N(Cc1ccccc1)C1(CCN(CCc3ccccc3)CC1)O2)NO [Example 84, (E)-3-{1′-(2-Phenyl-ethyl)-3,4-dihydro-3-benzyl-4-oxo-spiro[2H-(1,3)-benzoxazine-2,4′-piperidin]-6-yl}-N-hydroxy-acrylamide] | 0.1 to 1 µM | 1 to 3 µM | 1 to 3 µM | 1 to 3 µM
O=C(/C=C/c1ccc2c(c1)C(=O)NC1(CCN(Cc3ccc(F)cc3)CC1)O2)NO [Example 74, (E)-3-{1′-(4-Fluoro-benzyl)-3,4-dihydro-4-oxo-spiro[2H-(1,3)-benzoxazine-2,4′-piperidin]-6-yl}-N-hydroxy-acrylamide] | 0.1 to 1 µM | ≤ 1 µM | 1 to 3 µM | ≤ 1 µM
CN1C(=O)c2cc(/C=C/C(=O)NO)ccc2OC12CCN(Cc1ccc(F)cc1)CC2 [Example 75, (E)-3-{1′-(4-Fluoro-benzyl)-3,4-dihydro-3-methyl-4-oxo-spiro[2H-(1,3)-benzoxazine-2,4′-piperidin]-6-yl}-N-hydroxy-acrylamide] | 0.1 to 1 µM | ≤ 1 µM | 1 to 3 µM | ≤ 1 µM
CCOC(=O)N1CCC2(CC1)CC(=O)c1cc(/C=C/C(=O)NO)ccc1O2 [Example 6, (E)-3-{1′-Ethyloxycarbonyl-4-oxo-spiro[chromane-2,4′-piperidine]-6-yl}-N-hydroxy-acrylamide] | 0.1 to 1 µM | 1 to 3 µM | ≥ 3 µM | 1 to 3 µM
O=C(/C=C/c1ccc2c(c1)C(=O)CC1(CCN(Cc3ccc(Cl)cc3)CC1)O2)NO [Example 39, (E)-3-{1′-(4-Chloro-benzyl)-4-oxo-spiro[chromane-2,4′-piperidine]-6-yl}-N-hydroxy-acrylamide] | 0.1 to 1 µM | ≤ 1 µM | 1 to 3 µM | ≤ 1 µM
O=C(/C=C/c1ccc2c(c1)C(=NOCc1ccccc1)CC1(CCN(Cc3ccccc3)CC1)O2)NO (racemic) [Example 17, (E)-3-{1′-Benzyl-4-benzyloxyimino-spiro[chromane-2,4′-piperidine]-6-yl}-N-hydroxy-acrylamide] | > 1 µM | 1 to 3 µM | 1 to 3 µM | 1 to 3 µM
CN1C(=O)c2cc(/C=C/C(=O)NO)ccc2OC12CCN(CCc1ccccc1)CC2 [Example 77, (E)-3-{1′-(2-Phenyl-ethyl)-3,4-dihydro-3-methyl-4-oxo-spiro[2H-(1,3)-benzoxazine-2,4′-piperidin]-6-yl}-N-hydroxy-acrylamide] | 0.1 to 1 µM | ≤ 1 µM | 1 to 3 µM | 1 to 3 µM
O=C(/C=C/c1ccc2c(c1)C(=O)CC1(CCN(Cc3ccc(F)cc3)CC1)O2)NO [Example 36, (E)-3-{1′-(4-Fluoro-benzyl)-4-oxo-spiro[chromane-2,4′-piperidine]-6-yl}-N-hydroxy-acrylamide] | 0.1 to 1 µM | ≤ 1 µM | 1 to 3 µM | ≤ 1 µM
O=C(/C=C/c1ccc2c(c1)C(O)CC1(CCN(Cc3ccccc3)CC1)O2)NO (stereo not drawn) [Example 14, (E)-3-{1′-Benzyl-4-hydroxy-spiro[chromane-2,4′-piperidine]-6-yl}-N-hydroxy-acrylamide] | > 1 µM | 1 to 3 µM | ≥ 3 µM | 1 to 3 µM
COc1ccccc1CN1CCC2(CC1)CC(=O)c1cc(/C=C/C(=O)NO)ccc1O2 [Example 31, (E)-3-{1′-(2-Methoxy-benzyl)-4-oxo-spiro[chromane-2,4′-piperidine]-6-yl}-N-hydroxy-acrylamide] | 0.1 to 1 µM | ≤ 1 µM | ≤ 1 µM | ≤ 1 µM
O=C(/C=C/c1ccc2c(c1)C(=O)CC1(CCN(CCc3ccc(Cl)cc3)CC1)O2)NO [Example 57, (E)-3-{1′-[2-(4-Chloro-phenyl)-ethyl]-4-oxo-spiro[chromane-2,4′-piperidine]-6-yl}-N-hydroxy-acrylamide] | 0.1 to 1 µM | ≤ 1 µM | ≤ 1 µM | ≤ 1 µM

Now from value to compound:

IC50 [1] | IC50 (K562 cells) | IC50 (A549 cells) | IC50 (HCT-116 cells) | Compound
0.1 to 1 µM | ≤ 1 µM | 1 to 3 µM | ≤ 1 µM | O=C(/C=C/c1ccc2c(c1)C(=O)CC1(CCN(Cc3ccccc3F)CC1)O2)NO [Example 34, (E)-3-{1′-(2-Fluoro-benzyl)-4-oxo-spiro[chromane-2,4′-piperidine]-6-yl}-N-hydroxy-acrylamide]
0.1 to 1 µM | ≤ 1 µM | 1 to 3 µM | 1 to 3 µM | O=C(/C=C/c1ccc2c(c1)C(=O)CC1(CCN(Cc3cccc(F)c3)CC1)O2)NO [Example 35, (E)-3-{1′-(3-Fluoro-benzyl)-4-oxo-spiro[chromane-2,4′-piperidine]-6-yl}-N-hydroxy-acrylamide]
0.1 to 1 µM | ≤ 1 µM | 1 to 3 µM | ≤ 1 µM | O=C(/C=C/c1ccc2c(c1)C(=O)CC1(CCN(Cc3ccccn3)CC1)O2)NO [Example 40, (E)-3-{1′-(Pyridin-2-ylmethyl)-4-oxo-spiro[chromane-2,4′-piperidine]-6-yl}-N-hydroxy-acrylamide]
0.1 to 1 µM | 1 to 3 µM | 1 to 3 µM | 1 to 3 µM | O=C(/C=C/c1ccc2c(c1)C(=O)N(Cc1ccccc1)C1(CCN(Cc3ccccc3)CC1)O2)NO [Example 80, (E)-3-{1′-Benzyl-3,4-dihydro-3-benzyl-4-oxo-spiro[2H-(1,3)-benzoxazine-2,4′-piperidin]-6-yl}-N-hydroxy-acrylamide]
< 0.1 µM | ≥ 3 µM | 1 to 3 µM | 1 to 3 µM | O=C(/C=C/c1ccc2c(c1)C(=O)CC1(CCNCC1)O2)NO [Example 1, (E)-3-{4-oxo-spiro[chromane-2,4′-piperidine]-6-yl}-N-hydroxy-acrylamide]
< 0.1 µM | ≤ 1 µM | 1 to 3 µM | ≤ 1 µM | O=C(/C=C/c1ccc2c(c1)C(=O)NC1(CCN(Cc3ccccc3)CC1)O2)NO [Example 25, (E)-3-{1′-Benzyl-3,4-dihydro-4-oxo-spiro[2H-(1,3)-benzoxazine-2,4′-piperidin]-6-yl}-N-hydroxy-acrylamide]
< 0.1 µM | ≤ 1 µM | ≤ 1 µM | ≤ 1 µM | O=C(/C=C/c1ccc2c(c1)C(=O)CC1(CCN(CCc3c[nH]c4ccccc34)CC1)O2)NO [Example 49]
